Assay results as given in ChEMBL document CHEMBL1144449, “Design, synthesis, and evaluation of orally active 4-(2,4-difluoro-5-(methoxycarbamoyl)phenylamino)pyrrolo[2,1-f][1,2,4]triazines as dual vascular endothelial growth factor receptor-2 and fibroblast growth factor receptor-1 inhibitors” (J Med Chem, 2005).

Columns and labels:
[1] = molecular target: Vascular endothelial growth factor receptor 2 (Homo sapiens, UniProt P35968); experiment: Inhibition of human vascular endothelial growth factor receptor 2 kinase activity
[2] = molecular target: Vascular endothelial growth factor receptor (Homo sapiens, UniProt P17948+P35916+P35968); experiment: Inhibition of VEGF-stimulated human umbilical vein endothelial cell proliferation; assay type: functional, cell-based
[3] = Plasma level after 1 hour of oral administration of 50 mg/kg compound in mouse; assay type: ADME, organism-based; set-up: dose 50 mg/kg, route oral; details: read-out: Plasma level
[4] = Plasma level after 4 hours of oral administration of 50 mg/kg compound in mouse; assay type: ADME, organism-based; set-up: dose 50 mg/kg, route oral; details: read-out: Plasma level
[5] = molecular target: Fibroblast growth factor receptor (Homo sapiens, UniProt P22607+P11362+P22455+P21802); experiment: Inhibition of FGF-stimulated human umbilical vein endothelial cell proliferation; assay type: functional, cell-based
[6] = molecular target: Protein kinase C alpha type (Homo sapiens, UniProt P17252); experiment: Inhibition of human protein kinase C alpha
[7] = molecular target: Receptor tyrosine-protein kinase erbB-2 (Homo sapiens, UniProt P04626); experiment: Inhibition against human HER2 kinase
[8] = molecular target: Cyclin-dependent kinase 2 (Homo sapiens, UniProt P24941); experiment: Inhibition of human cyclin-dependent kinase 2
[9] = molecular target: Fibroblast growth factor receptor 1 (Homo sapiens, UniProt P11362); experiment: Inhibition of human fibroblast growth factor receptor 1
[10] = molecular target: Insulin-like growth factor 1 receptor (Homo sapiens, UniProt P08069); experiment: Inhibition of human insulin-like growth factor I receptor
[11] = molecular target: Platelet-derived growth factor receptor beta (Homo sapiens, UniProt P09619); experiment: Inhibition of human platelet-derived growth factor receptor beta
[12] = molecular target: Tyrosine-protein kinase Lck (Homo sapiens, UniProt P06239); experiment: Inhibition of human p56 lck tyrosine kinase
Cytochrome P450 1A2 = molecular target: T1, Cytochrome P450 1A2 (Homo sapiens, UniProt P05177); experiment: Inhibitory concentration against human cytochrome P450 1A2; assay type: ADME
T1 sequence (P05177 whole entry): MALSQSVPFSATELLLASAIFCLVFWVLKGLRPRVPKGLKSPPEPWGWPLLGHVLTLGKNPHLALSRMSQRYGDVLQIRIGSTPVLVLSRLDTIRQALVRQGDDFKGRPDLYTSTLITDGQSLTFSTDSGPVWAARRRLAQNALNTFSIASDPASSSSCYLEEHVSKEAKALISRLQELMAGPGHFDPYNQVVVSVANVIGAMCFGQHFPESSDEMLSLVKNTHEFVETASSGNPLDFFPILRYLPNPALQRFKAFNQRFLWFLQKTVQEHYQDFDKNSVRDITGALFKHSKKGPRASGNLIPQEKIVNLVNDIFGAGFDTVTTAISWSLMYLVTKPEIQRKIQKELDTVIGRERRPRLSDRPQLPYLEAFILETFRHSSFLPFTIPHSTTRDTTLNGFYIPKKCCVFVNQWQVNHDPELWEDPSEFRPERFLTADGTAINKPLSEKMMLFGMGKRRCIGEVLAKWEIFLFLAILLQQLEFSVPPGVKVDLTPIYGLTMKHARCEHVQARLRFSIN

Cytochrome P450 2C9 = Cytochrome P450 2C9 (Homo sapiens, UniProt P11712); experiment: Inhibitory concentration against human cytochrome P450 2C9; assay type: ADME
Cytochrome P450 3A4 = Cytochrome P450 3A4 (Homo sapiens, UniProt P08684); experiment: Inhibitory concentration against human cytochrome P450 3A4; assay type: ADME
Mus musculus [13] = experiment: Tumor growth inhibition determined after oral administration of 60 mg/kg/day compound against established L2987 human lung carcinoma xenografts implanted subcutaneously in athymic mouse; assay type: functional; details: read-out: TGI
Mus musculus [14] = experiment: Tumor growth inhibition determined after oral administration of 100 mg/kg/day compound against established L2987 human lung carcinoma xenografts implanted subcutaneously in athymic mouse; assay type: functional; details: read-out: TGI
Mus musculus [15] = experiment: Tumor growth inhibition determined after oral administration of […] mg/kg/day compound against established L2987 human lung carcinoma xenografts implanted subcutaneously in athymic mouse; assay type: functional; details: read-out: TGI
Mus musculus [16] = experiment: Tumor growth inhibition determined after oral administration of 50 mg/kg/day compound against established L2987 human lung carcinoma xenografts implanted subcutaneously in athymic mouse; assay type: functional; details: read-out: TGI

Sequence of Insulin-like growth factor 1 receptor (P08069 31-736 limits assumed): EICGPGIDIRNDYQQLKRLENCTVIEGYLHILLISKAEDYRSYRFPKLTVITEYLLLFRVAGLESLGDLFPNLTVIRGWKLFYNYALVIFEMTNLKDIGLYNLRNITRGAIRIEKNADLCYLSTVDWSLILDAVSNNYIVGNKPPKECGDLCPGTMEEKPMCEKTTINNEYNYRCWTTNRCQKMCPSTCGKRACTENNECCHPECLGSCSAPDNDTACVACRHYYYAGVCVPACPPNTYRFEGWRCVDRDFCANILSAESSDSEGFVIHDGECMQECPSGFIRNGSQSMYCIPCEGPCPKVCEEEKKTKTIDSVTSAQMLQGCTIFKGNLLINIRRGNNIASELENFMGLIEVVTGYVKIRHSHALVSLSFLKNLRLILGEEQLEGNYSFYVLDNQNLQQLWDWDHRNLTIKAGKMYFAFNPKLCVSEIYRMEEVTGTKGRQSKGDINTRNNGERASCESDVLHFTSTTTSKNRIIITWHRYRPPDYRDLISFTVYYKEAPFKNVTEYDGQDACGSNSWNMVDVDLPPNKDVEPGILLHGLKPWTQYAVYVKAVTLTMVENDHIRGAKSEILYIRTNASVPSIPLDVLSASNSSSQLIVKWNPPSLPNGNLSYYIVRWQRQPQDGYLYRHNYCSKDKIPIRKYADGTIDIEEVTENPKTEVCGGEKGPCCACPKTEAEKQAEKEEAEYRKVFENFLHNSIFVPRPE
Sequence of Insulin-like growth factor 1 receptor (P08069 741-1367 limits assumed): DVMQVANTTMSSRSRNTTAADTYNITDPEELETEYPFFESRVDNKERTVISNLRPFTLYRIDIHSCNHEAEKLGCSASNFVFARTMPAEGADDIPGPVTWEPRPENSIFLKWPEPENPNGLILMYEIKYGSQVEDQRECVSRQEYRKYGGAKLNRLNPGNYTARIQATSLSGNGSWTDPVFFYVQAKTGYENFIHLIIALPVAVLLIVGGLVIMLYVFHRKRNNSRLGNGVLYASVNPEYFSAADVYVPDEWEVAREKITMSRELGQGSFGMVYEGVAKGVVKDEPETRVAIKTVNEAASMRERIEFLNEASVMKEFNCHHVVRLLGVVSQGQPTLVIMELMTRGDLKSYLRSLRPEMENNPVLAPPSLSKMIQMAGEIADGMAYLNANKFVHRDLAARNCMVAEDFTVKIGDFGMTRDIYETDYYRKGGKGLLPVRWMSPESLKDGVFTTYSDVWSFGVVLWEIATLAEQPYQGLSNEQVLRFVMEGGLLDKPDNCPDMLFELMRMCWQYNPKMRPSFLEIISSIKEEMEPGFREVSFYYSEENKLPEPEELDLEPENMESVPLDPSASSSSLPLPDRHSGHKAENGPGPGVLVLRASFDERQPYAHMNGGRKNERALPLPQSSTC
Sequence of Vascular endothelial growth factor receptor 2 (P35968 whole entry): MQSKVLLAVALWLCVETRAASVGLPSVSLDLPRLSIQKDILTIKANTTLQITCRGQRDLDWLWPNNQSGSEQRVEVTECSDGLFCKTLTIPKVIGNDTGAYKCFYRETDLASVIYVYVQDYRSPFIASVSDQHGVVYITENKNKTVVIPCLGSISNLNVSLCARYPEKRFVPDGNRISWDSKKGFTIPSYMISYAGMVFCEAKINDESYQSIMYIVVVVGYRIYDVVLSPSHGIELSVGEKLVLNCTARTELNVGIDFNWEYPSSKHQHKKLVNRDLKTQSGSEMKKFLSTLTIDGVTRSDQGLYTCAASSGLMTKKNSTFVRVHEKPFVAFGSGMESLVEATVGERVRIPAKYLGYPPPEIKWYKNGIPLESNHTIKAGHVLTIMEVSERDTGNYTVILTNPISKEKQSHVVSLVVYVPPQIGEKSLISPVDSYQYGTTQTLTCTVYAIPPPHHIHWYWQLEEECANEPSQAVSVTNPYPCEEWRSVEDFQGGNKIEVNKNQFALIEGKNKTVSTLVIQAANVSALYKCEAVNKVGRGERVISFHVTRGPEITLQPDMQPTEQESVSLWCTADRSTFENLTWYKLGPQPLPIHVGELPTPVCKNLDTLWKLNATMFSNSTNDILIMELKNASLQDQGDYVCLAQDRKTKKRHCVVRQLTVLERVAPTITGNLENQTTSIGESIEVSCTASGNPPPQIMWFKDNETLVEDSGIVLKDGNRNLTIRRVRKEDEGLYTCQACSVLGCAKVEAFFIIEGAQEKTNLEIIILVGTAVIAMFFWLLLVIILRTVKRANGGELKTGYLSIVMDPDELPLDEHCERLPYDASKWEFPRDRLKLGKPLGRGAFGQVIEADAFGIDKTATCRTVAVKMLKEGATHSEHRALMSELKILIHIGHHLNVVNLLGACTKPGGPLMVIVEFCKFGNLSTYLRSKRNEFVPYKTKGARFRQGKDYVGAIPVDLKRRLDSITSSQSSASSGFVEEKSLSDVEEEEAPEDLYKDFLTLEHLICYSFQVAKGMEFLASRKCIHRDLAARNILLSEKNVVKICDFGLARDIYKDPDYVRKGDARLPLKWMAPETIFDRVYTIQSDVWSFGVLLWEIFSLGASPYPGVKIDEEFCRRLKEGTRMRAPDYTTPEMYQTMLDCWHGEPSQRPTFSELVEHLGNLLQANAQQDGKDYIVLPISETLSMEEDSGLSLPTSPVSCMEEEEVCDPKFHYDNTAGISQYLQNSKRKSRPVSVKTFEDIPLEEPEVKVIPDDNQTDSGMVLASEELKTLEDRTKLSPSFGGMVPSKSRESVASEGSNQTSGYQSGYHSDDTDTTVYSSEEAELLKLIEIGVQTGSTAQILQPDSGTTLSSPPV
Sequence of Fibroblast growth factor receptor 1 (P11362 whole entry): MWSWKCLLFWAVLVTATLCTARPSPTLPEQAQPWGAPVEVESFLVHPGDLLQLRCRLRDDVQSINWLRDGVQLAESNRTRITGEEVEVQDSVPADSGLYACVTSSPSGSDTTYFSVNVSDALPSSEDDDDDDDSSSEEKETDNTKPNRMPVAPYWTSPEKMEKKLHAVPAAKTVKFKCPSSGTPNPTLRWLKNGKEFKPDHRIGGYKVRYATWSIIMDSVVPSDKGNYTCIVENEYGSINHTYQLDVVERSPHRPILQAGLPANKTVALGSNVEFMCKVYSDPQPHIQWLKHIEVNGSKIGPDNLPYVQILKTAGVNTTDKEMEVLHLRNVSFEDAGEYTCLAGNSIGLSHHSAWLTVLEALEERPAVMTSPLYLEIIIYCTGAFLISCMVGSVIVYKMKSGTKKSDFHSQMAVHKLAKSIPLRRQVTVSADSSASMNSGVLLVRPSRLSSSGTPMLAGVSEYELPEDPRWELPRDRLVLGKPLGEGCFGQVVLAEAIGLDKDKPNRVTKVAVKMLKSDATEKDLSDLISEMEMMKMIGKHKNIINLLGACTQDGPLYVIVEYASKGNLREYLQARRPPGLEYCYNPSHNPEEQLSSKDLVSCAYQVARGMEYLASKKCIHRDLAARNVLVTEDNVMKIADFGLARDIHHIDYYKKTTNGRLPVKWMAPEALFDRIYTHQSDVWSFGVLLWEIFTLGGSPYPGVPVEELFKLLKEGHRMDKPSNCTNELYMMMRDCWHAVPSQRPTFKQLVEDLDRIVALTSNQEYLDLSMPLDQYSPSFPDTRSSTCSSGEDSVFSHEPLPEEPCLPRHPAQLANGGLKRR
Sequence of Platelet-derived growth factor receptor beta (P09619 whole entry): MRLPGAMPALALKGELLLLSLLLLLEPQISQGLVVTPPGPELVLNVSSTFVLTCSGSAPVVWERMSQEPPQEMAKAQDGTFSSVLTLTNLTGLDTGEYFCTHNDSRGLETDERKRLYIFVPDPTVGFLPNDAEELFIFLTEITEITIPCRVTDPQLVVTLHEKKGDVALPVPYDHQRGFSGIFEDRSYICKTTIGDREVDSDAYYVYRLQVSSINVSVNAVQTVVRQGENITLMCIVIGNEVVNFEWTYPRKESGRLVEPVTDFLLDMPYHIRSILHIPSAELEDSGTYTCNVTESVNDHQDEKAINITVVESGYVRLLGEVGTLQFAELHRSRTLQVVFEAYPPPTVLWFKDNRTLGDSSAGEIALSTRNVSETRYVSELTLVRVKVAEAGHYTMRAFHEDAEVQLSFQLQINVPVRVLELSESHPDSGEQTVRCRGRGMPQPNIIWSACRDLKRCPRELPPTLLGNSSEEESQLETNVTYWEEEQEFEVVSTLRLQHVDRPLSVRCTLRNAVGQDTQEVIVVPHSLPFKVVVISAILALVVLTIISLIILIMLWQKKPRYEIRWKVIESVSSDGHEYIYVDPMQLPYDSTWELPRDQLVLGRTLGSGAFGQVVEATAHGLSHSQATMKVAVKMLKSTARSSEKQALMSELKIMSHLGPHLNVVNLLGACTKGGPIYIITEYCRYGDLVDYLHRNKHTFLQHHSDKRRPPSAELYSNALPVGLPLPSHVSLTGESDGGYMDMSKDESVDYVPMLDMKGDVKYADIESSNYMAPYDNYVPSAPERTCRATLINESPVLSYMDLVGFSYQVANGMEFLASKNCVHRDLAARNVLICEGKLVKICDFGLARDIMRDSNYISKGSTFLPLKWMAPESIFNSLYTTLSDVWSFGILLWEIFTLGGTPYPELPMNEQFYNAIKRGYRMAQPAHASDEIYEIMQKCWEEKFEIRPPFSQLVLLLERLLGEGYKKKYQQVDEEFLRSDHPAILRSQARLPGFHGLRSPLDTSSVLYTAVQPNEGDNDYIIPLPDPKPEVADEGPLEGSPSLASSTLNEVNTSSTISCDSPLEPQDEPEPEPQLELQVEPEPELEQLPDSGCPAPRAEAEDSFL

Row | SMILES | IC50 [1] [nM] | IC50 [2] [nM] | IC50 [5] [nM] | IC50 [9] [nM] | also measured
1 | CONC(=O)c1cc(Nc2ncnn3cc(NC(=O)OC4CCN(C)CC4)c(C(C)C)c23)c(F)cc1F | 36 | 19 |  |  | concentration at 1 h [3]: 5.1 µM; concentration at 4 h [4]: 3 µM
2 | CCOC(=O)c1cn2ncnc(Nc3cc(C(=O)NOC)ccc3F)c2c1C(C)C | 34 |  |  |  | 
3 | CCOC(=O)c1cn2ncnc(Oc3cccc(C(=O)NOC)c3)c2c1C(C)C | 270 |  |  |  | 
4 | CONC(=O)c1cc(Nc2ncnn3cc(-c4nnc(C)o4)c(C(C)C)c23)c(F)cc1F |  |  | 6.5 | 19 | IC50 [6]: > 50000 nM; IC50 [7]: 8000 nM; IC50 [8]: > 50000 nM; IC50 [10]: > 25000 nM; IC50 [11]: > 2000 nM; concentration at 1 h [3]: 132 µM; concentration at 4 h [4]: 37.7 µM
5 | CONC(=O)c1cc(Nc2ncnn3cc(NC(=O)OCCCS(C)(=O)=O)c(C(C)C)c23)c(F)cc1F |  |  |  | 58 | IC50 [6]: > 50000 nM; IC50 [7]: 5300 nM; IC50 [8]: > 50000 nM; IC50 [12]: 5100 nM; IC50 [10]: > 25000 nM; IC50 [11]: > 2000 nM; concentration at 1 h [3]: 7.9 µM; concentration at 4 h [4]: 13.8 µM
6 | CONC(=O)c1cc(Nc2ncnn3cc(-c4ncc(C)o4)c(C(C)C)c23)c(F)cc1F | 8 | 1.1 | 4 | 20 | IC50 (Cytochrome P450 1A2): 64 nM; IC50 (Cytochrome P450 2C9): 3600 nM; IC50 (Cytochrome P450 3A4): 5100 nM
7 | CCc1nnc(-c2cn3ncnc(Nc4cc(C(=O)NOC)c(F)cc4F)c3c2C(C)C)o1 | 17 | 1.8 | 4.7 | 28 | 
8 | CCOC(=O)c1cn2ncnc(Nc3cccc(C(=O)NOC)c3)c2c1C(C)C | 130 |  |  |  | 
9 | CONC(=O)c1cc(Nc2ncnn3cc(-c4nnc(CS(C)(=O)=O)o4)c(C(C)C)c23)c(F)cc1F | 16 | 2.1 | 4.6 | 16 | inhibition in vivo at 60 mg/kg/day (Mus musculus [13]): 42.6%; inhibition in vivo at 100 mg/kg/day (Mus musculus [14]): 74.9%; concentration at 1 h [3]: 288 µM; concentration at 4 h [4]: 232 µM
10 | CONC(=O)c1cc(Nc2ncnn3cc(-c4nnco4)c(C(C)C)c23)c(F)cc1F | 77 | 91 | 54 | 160 | 
11 | CONC(=O)c1cc(Nc2ncnn3cc(-c4nnc(C(F)F)o4)c(C(C)C)c23)c(F)cc1F |  |  | 21 | 100 | inhibition in vivo at 150 mg/kg/day (Mus musculus [15]): 88.4%; IC50 [6]: > 50000 nM; IC50 [7]: > 10000 nM; IC50 [8]: > 50000 nM; inhibition in vivo at 50 mg/kg/day (Mus musculus [16]): 30%; IC50 [10]: > 25000 nM; IC50 [11]: > 2000 nM; inhibition in vivo at 100 mg/kg/day (Mus musculus [14]): 46.5%; concentration at 1 h [3]: 187 µM; concentration at 4 h [4]: 155 µM
12 | CONC(=O)c1cc(Nc2ncnn3cc(-c4nnc(N(C)C)o4)c(C(C)C)c23)c(F)cc1F | 11 | 6.7 | 7.3 | 18 | 
13 | CONC(=O)c1cc(Nc2ncnn3cc(-c4nnc(CC5CC5)o4)c(C(C)C)c23)c(F)cc1F | 17 | 4 | 9.2 | 27 | 
14 | CCOC(=O)c1cn2ncnc(Nc3ccc(F)c(C(=O)NOC)c3)c2c1C(C)C | 79 |  |  |  | 
15 | CONC(=O)c1cc(Nc2ncnn3cc(-c4nnc(C5CC5)o4)c(C(C)C)c23)c(F)cc1F | 11 | 3.6 | 5.3 | 14 | 
16 | CONC(=O)c1cc(Nc2ncnn3cc(-c4nc(C)no4)c(C(C)C)c23)c(F)cc1F | 49 | 6.8 | 7.6 | 110 | 
17 | CCOC(=O)Nc1cn2ncnc(Nc3cc(C(=O)NOC)c(F)cc3F)c2c1C(C)C | 66 | 31 |  |  | 

Row | SMILES | IC50 [1] [nM] | IC50 [2] [nM] | IC50 [5] [nM] | IC50 [9] [nM] | also measured
18 | CONC(=O)c1cc(Nc2ncnn3cc(-c4nnc(CC(F)(F)F)o4)c(C(C)C)c23)c(F)cc1F | 29 | 25 | 44 | 68 | 
19 | CONC(=O)c1cc(Nc2ncnn3cc(-c4nnc(C(C)C)o4)c(C(C)C)c23)c(F)cc1F | 22 | 18 | 1 | 39 | 
20 | CONC(=O)c1cc(Nc2ncnn3cc(-c4n[nH]c(C)n4)c(C(C)C)c23)c(F)cc1F | 71 | 50 | 46 | 50 | 
21 | CONC(=O)c1cc(Nc2ncnn3cc(NC(=O)OCCCN4CCCCC4)c(C(C)C)c23)c(F)cc1F | 79 | 62 |  |  | 
22 | CONC(=O)c1cc(Nc2ncnn3cc(NC(=O)OCc4ccccc4)c(C(C)C)c23)c(F)cc1F | 180 |  |  |  | 
23 | CCOC(=O)c1cn2ncnc(Nc3cc(C(=O)NOCC(C)C)c(F)cc3F)c2c1C(C)C | 1200 |  |  |  | 
24 | CONC(=O)c1cc(Nc2ncnn3cc(-c4noc(C)n4)c(C(C)C)c23)c(F)cc1F | 110 |  |  | 140 | 
25 | CCOC(=O)c1cn2ncnc(Nc3ccc(Br)c(C(=O)NOC)c3)c2c1C(C)C | 270 |  |  |  | 
26 | CONC(=O)c1cc(Nc2ncnn3cc(NC(=O)OCC4CCCO4)c(C(C)C)c23)c(F)cc1F (centres undefined) |  |  |  |  | IC50 [6]: > 50000 nM; IC50 [7]: > 10000 nM; IC50 [8]: > 50000 nM; IC50 [10]: > 25000 nM; concentration at 1 h [3]: 29.5 µM; concentration at 4 h [4]: 2.9 µM
27 | CCONC(=O)c1cc(Nc2ncnn3cc(C(=O)OCC)c(C(C)C)c23)c(F)cc1F | 40 |  |  |  | 
28 | CCOC(=O)c1cn2ncnc(Nc3cc(C(=O)NOCC4CC4)c(F)cc3F)c2c1C(C)C | 190 |  |  |  | 
29 | CONC(=O)c1cc(Nc2ncnn3cc(-c4nnc(CN(C)C)o4)c(C(C)C)c23)c(F)cc1F | 66 |  |  | 149 | 
30 | CCOC(=O)c1cn2ncnc(Nc3cc(C(=O)NOC(C)C)c(F)cc3F)c2c1C(C)C | 350 |  |  |  | 
31 | CONC(=O)c1cc(Nc2ncnn3cc(-c4nnc(CC(C)C)o4)c(C(C)C)c23)c(F)cc1F | 23 | 2.1 | 6.6 | 33 | 
32 | CCOC(=O)c1cn2ncnc(Nc3cc(C(=O)NOC)c(F)cc3F)c2c1C(C)C | 13 |  |  |  | 
33 | CONC(=O)c1cc(Nc2ncnn3cc(-c4nnc(C(F)(F)F)o4)c(C(C)C)c23)c(F)cc1F | 76 | 35 | 33 | 84 | 
34 | CCOC(=O)c1cn2ncnc(Nc3ccc(C)c(C(=O)NOC)c3)c2c1C(C)C | 120 |  |  |  | 
